Data from ChEMBL document CHEMBL3580638, “Targeting HER-2 over expressed breast cancer cells with 2-cyclohexyl-N-[(Z)-(substituted phenyl/furan-2-yl/thiophene-2-yl)methylidene]hydrazinecarbothioamide” (Bioorg Med Chem Lett, 2014).
Active and inactive are the calls of the source. The rule behind the calls is not given here.

Assays:
MCF7 [1] = assay: Cytotoxicity against human MCF7 cells assessed as cell growth inhibition at 300 uM after 48 hrs by WST-1 assay; type: functional, cell-based
[2] = Cytotoxicity against human SKBR3 cells overexpressing HER2 assessed as cell growth inhibition after 48 hrs by WST-1 assay; type: functional, cell-based; conditions: SK-BR-3, 48 h
MDA-MB-468 [3] = assay: Cytotoxicity against human MDA-MB-468 cells assessed as cell growth inhibition at 300 uM after 48 hrs by WST-1 assay; type: functional, cell-based
MDA-MB-231 [4] = assay: Cytotoxicity against human MDA-MB-231 cells assessed as cell growth inhibition after 48 hrs by WST-1 assay; type: functional, cell-based; conditions: MDA-MB-231, 48 h
MDA-MB-231 [5] = assay: Cytotoxicity against human MDA-MB-231 cells assessed as cell growth inhibition at 300 uM after 48 hrs by WST-1 assay; type: functional, cell-based
MDA-MB-468 [6] = assay: Cytotoxicity against human MDA-MB-468 cells assessed as cell growth inhibition after 48 hrs by WST-1 assay; type: functional, cell-based; conditions: MDA-MB-468, 48 h
MCF7 [7] = assay: Cytotoxicity against human MCF7 cells assessed as cell growth inhibition after 48 hrs by WST-1 assay; type: functional, cell-based; conditions: MCF7, 48 h
SK-BR-3 [8] = assay: Decrease in ALDH activity in human SKBR3 cells overexpressing HER2 assessed as ALDH-positive population by flow cytometry in presence of ALDH inhibitor DEAB (reference value: 0.7%); type: functional; set-up: scale not given: the % may be the effect or the level left
SK-BR-3 [9] = assay: Decrease in ALDH activity in human SKBR3 cells overexpressing HER2 assessed as ALDH-positive population by flow cytometry in absence of ALDH inhibitor DEAB (reference value: 20%); type: functional; set-up: scale not given: the % may be the effect or the level left
SK-BR-3 [10] = assay: Decrease in ALDH activity in human SKBR3 cells overexpressing HER2 assessed as reduction in ALDH-positive population at 30 uM after 72 hrs by Aldefluor assay; type: functional
[11] = Decrease in HER2 expression in human SKBR3 cells overexpressing HER2 by immunohistochemistry staining; type: functional, cell-based; conditions: SK-BR-3
MCF7 [12] = assay: Inhibition of cell adhesion in human MCF7 cells at 25 uM after 30 to 90 mins by microtiter plate reader analysis; type: functional
MCF7 [13] = assay: Inhibition of cell migration in human MCF7 cells at 25 uM after 8 hrs by microtiter plate reader analysis; type: functional; conditions: MCF7, 8 h
MDA-MB-231 [14] = assay: Inhibition of cell adhesion in human MDA-MB-231 cells at 25 uM after 30 to 90 mins by microtiter plate reader analysis; type: functional
SK-BR-3 [15] = assay: Inhibition of cell migration in human SKBR3 cells overexpressing HER2 at 25 uM after 8 hrs by microtiter plate reader analysis; type: functional; conditions: SK-BR-3, 8 h
SK-BR-3 [16] = assay: Inhibition of cell adhesion in human SKBR3 cells overexpressing HER2 at 25 uM after 30 to 90 mins by microtiter plate reader analysis; type: functional
MDA-MB-231 [17] = assay: Inhibition of cell migration in human MDA-MB-231 cells at 25 uM after 8 hrs by microtiter plate reader analysis; type: functional; conditions: MDA-MB-231, 8 h

SMILES	inhibition (MCF7 [1])	IC50 [2] [µM]	inhibition (MDA-MB-468 [3])	IC50 (MDA-MB-231 [4]) [µM]	IC50 (MDA-MB-468 [6]) [µM]	IC50 (MCF7 [7]) [µM]	inhibition [11]	other results
O=[N+]([O-])c1cccc(/C=N\NC(=S)NC2CCCCC2)c1	inactive	34.6	inactive	84.8				
S=C(N/N=C\c1ccc2c(c1)OCO2)NC1CCCCC1	inactive	61.6	inactive					inhibition (MDA-MB-231 [5]): inactive
S=C(N/N=C\c1ccc(Cl)cc1)NC1CCCCC1		32.2		38.3	41.6	91.4		
S=C(N/N=C\c1ccco1)NC1CCCCC1	inactive	45.7	inactive	141				
CC[C@@H](C(=O)[C@@H](C)[C@@H](O)[C@H](C)[C@@H]1O[C@@H]([C@@H](CC)C(=O)O)CC[C@@H]1C)[C@H]1O[C@]2(C=C[C@@H](O)[C@]3(CC[C@@](C)([C@H]4CC[C@](O)(CC)[C@H](C)O4)O3)O2)[C@H](C)C[C@@H]1C [SALINOMYCIN]								Activity (SK-BR-3 [8]): 0.6%; Activity (SK-BR-3 [9]): 30%
O=c1[nH]cc(F)c(=O)[nH]1 [FLUOROURACIL]		38.9		77.3		34.5		
CCOc1ccc(/C=N\NC(=S)NC2CCCCC2)cc1		29.9		68.2	252	166	Active	Activity (SK-BR-3 [8]): 0.7%; Activity (SK-BR-3 [9]): 11.1%; inhibition (SK-BR-3 [10]): Active
O=[N+]([O-])c1ccc(/C=N\NC(=S)NC2CCCCC2)cc1	inactive	41	inactive					inhibition (MDA-MB-231 [5]): inactive
COc1ccc(/C=N\NC(=S)NC2CCCCC2)cc1OC		47.9	inactive			99.2		inhibition (MDA-MB-231 [5]): inactive
Oc1cccc(/C=N\NC(=S)NC2CCCCC2)c1	inactive	25.6		24.5	32.2		Active	inhibition (SK-BR-3 [10]): Active
Oc1ccc(/C=N\NC(=S)NC2CCCCC2)c(O)c1		27.7		56.6	44.6	105		
S=C(N/N=C\c1cccs1)NC1CCCCC1		30.4		58.6	337	49.8	Active	inhibition (SK-BR-3 [10]): Active
COc1cccc(/C=N\NC(=S)NC2CCCCC2)c1		30.9		88.9	46.7	49.9	Active	Activity (SK-BR-3 [8]): 0.7%; inhibition at 25 µM (MCF7 [12]): 15.9%; Activity (SK-BR-3 [9]): 9.5%; inhibition at 30 µM (SK-BR-3 [10]; SK-BR-3, 72 h): 50%; inhibition at 25 µM (MCF7 [13]): 32.4%; inhibition at 25 µM (MDA-MB-231 [14]): 32.3%; inhibition at 25 µM (SK-BR-3 [15]): 46.7%; inhibition at 25 µM (SK-BR-3 [16]): 45.6%; inhibition at 25 µM (MDA-MB-231 [17]): 31.4%
O=[N+]([O-])c1ccccc1/C=N\NC(=S)NC1CCCCC1	inactive	46.5	inactive	118				
Oc1ccc(/C=N\NC(=S)NC2CCCCC2)cc1		29.9		115	242	50.4	Active	inhibition (SK-BR-3 [10]): Active
CN(C)c1ccc(/C=N\NC(=S)NC2CCCCC2)cc1		31.2		125	280	51.1		
